For one assay, the system named is A375 cells. In words: Alamar Blue Viability Assay. To be noted: 3 days. In kind it is cell-based. The procedure:
A375 cells (ATCC # CRL-1619; Passage 4˜15; doubling time is roughly 18 hours) are used. Culture medium is DMEM (high glucose, with L-glutamine)+10% FBS+Pen/Strep. Cells are passed every three days at 1:20.
200 μl of medium only is added into all wells along the edges of a 96-well flat bottom plate and 180 μl of cell suspension (containing 1,000 cells) per well is added into the plate with a Low Evaporation Lid (Costar Cat # 3595). The cells are cultured overnight. Compounds and controls are diluted according to standard compound dilution protocol described below. From 30 mM stock solution, 10 mM, 3 mM, 1 mM, and 0.3 mM solutions in 100% DMSO are prepared using the following serial dilution protocol:
The 30, 10, 3, 1 and 0.3 mM solutions are diluted 1:50 (DMSO:medium) by adding 4 μl of each to 196 μl of culture medium. This yields 600 μM, 200 μM, 60 μM, 20 μM, and 6 μM secondary stock solutions. 4 μl of DMSO are added to 196 μl medium for the DMSO control as well. 20 μl of compound dilutions, including the DMSO control locations (Row G, Columns 2-10 are DMSO control wells), are added in triplicate to the cells in the 96-well plate using a repeat pipettor (see plate layout below). This yields final concentrations of 60 μM, 20 μM, 6 μM, 2 μM, and 0.6 μM containing 0.2% DMSO in each well. The plate is gently tapped to evenly distribute compound within the well. The plate is incubated at 5% CO2 at 37° C. for 3 days.
20 μl of Alamar Blue (Biosource #DAL-1100) is added to each well. The plate is incubated in 5% CO2 incubator for 4 hours. Fluorescence is measured with excitation wavelength at 530 nm and emission wavelength at 590 nm using a Victor 2 multilabel plate reader (Perkin Elmer). Data is saved with plate format as a Text file and entered into ActivityBase (Cell-based SAR; Prolif-Alamar; MTT 5 plates unfixed fit) to calculate the percent of DMSO values for each compound set of triplicate wells and IC50 curves are plotted.

For a further assay, the target named is T1, V600E mutant B-RAF (Homo sapiens, UniProt P15056, V600E).
T1 construct: purchased Upstate
Nature of the assay: V600E Mutant B-RAF 33P Assay. It is filed as biochemical. The procedure:
Substrate (HIS-MEK1 K97M) is prepared by Celgene Corp. as described above.
Test compound is diluted in 100% DMSO (600 μM). […] Substrate mixture is prepared as 7.5 μM HIS-MEK1 K97M in assay buffer. ATP mixture is prepared as 300 μM ATP, 75 mM MgCl2, 0.05 μCi/μl ^33P ATP in assay buffer.
In a 96 well assay plate (Falcon Polylpropylene well U-bottom), the following are added to each well: 2.5 μl of test compound solution (serial dilutions), 20 μl of substrate mixture and 17.5 μl of enzyme mixture. The plate is incubated for at least 15 minutes. 10 μl of ATP mixture is added and the plate is incubated at room temperature for about 60 minutes. 80 μl of 12.5% TCA is added to each well, and the plate is incubated for at least 20 minutes. The contents of the plate is transferred to a glass fiber filter plate (Millipore) using a Packard Harvester (washing 10× with 1×PBS). 50 μl of Scintillation-20 fluid is added to each well. The plate is read using a Packard TopCount.

The structures appear in SMILES notation.

T1 sequence (P15056 whole entry V600E): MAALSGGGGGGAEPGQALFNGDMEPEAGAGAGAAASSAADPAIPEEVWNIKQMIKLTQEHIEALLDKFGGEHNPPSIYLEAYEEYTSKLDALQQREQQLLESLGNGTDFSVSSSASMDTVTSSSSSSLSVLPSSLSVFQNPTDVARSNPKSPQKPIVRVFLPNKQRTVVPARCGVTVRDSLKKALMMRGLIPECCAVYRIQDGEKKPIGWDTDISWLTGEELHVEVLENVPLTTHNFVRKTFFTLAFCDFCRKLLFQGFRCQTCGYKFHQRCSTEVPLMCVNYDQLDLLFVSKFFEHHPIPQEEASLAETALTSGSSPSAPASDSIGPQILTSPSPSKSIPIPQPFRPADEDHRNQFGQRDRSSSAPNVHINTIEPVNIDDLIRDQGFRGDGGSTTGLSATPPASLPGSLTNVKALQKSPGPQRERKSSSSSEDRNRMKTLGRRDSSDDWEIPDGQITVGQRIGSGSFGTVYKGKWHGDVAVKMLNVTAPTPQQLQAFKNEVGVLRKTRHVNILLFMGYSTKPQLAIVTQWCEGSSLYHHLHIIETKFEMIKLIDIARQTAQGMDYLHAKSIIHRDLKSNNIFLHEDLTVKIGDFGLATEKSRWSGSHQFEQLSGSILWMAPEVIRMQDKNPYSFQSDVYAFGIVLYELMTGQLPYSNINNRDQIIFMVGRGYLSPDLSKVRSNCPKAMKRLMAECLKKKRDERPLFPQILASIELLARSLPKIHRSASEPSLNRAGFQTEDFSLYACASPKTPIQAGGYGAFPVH

A word on the IC50: it is the concentration that gives 50% inhibition. `NC(=O)c1sc2nc(NC3CC3)nc(-c3ccc(OCc4ccccc4)nc3)c2c1N` [Example 168]: the IC50 in the assay with A375 cells (Homo sapiens, A-375, 72 h) lay within 20 to 30 µM; at V600E mutant B-RAF it was 0.1 to 10 µM.

As for `NC(=O)c1sc2nc(NC3CC3)nc(-c3ccc(O)nc3)c2c1N` [Example 170], the half-inhibitory concentration (IC50) was > 60 µM in the assay on A375 cells (Homo sapiens, A-375, 72 h) and 30 to 60 µM at V600E mutant B-RAF.

As for `COc1cncc(-c2nc(N[C@@H](C)CO)nc3sc(C(N)=O)c(N)c23)c1` [Example 177], the IC50 in the assay on A375 cells (Homo sapiens, A-375, 72 h) lay in the range of 10 to 20 µM. `CCc1cncc(-c2nc(NC(C)(C)CO)nc3sc(C(N)=O)c(N)c23)c1` [Example 178]: the IC50 in the assay with A375 cells (Homo sapiens, A-375, 72 h) lay within 10 to 20 µM; on V600E mutant B-RAF, 0.1 to 10 µM. The corresponding values for `CC(C)(CO)Nc1nc(-c2cncc(OCc3ccccc3)c2)c2c(N)c(C(N)=O)sc2n1` [Example 179] are 10 to 20 µM and 30 to 60 µM. With `CC(C)(CO)Nc1nc(-c2cncc(O)c2)c2c(N)c(C(N)=O)sc2n1` [Example 180], the half-inhibitory concentration (IC50) fell in the range of 10 to 20 µM in the assay with A375 cells (Homo sapiens, A-375, 72 h) and 0.1 to 10 µM on V600E mutant B-RAF. For `NC(=O)c1sc2nc(NC3CC3)nc(-c3ccccc3OCc3ccccc3)c2c1N` [Example 182], the IC50 in the assay with A375 cells (Homo sapiens, A-375, 72 h) fell in the range of 30 to 60 µM; against V600E mutant B-RAF it was 30 to 60 µM.

In the case of `NC(=O)c1sc2nc(NC3CC3)nc(-c3ccccc3O)c2c1N` [Example 183], the concentration for half-maximal inhibition (IC50) in the assay with A375 cells (Homo sapiens, A-375, 72 h) was 30 to 60 µM; on V600E mutant B-RAF, 0.1 to 10 µM. Taken in the same sequence, the figures for `COc1cccc(-c2nc(N)nc3sc(C(N)=O)c(N)c23)c1` [Example 184] were 20 to 30 µM and 0.1 to 10 µM. Taken in the same sequence, the figures for `NC(=O)c1sc2nc(NC3CC3)nc(-c3ccccc3F)c2c1N` [Example 186] were 20 to 30 µM and 0.1 to 10 µM. `NC(=O)c1sc2nc(NC3CC3)nc(-c3c(F)cccc3F)c2c1N` [Example 187]: the half-maximal inhibitory concentration (IC50) with A375 cells (Homo sapiens, A-375, 72 h) is 20 to 30 µM; on V600E mutant B-RAF, 0.1 to 10 µM. Turning to `NC(=O)c1nc(-c2ccc(Cl)c(Cl)c2)c2c(N)c(C(N)=O)sc2n1` [Example 193], the values for the 50% inhibitory concentration (IC50) with A375 cells and against V600E mutant B-RAF were 20 to 30 µM and 0.1 to 10 µM, respectively. Taken in the same sequence, the figures for `CC(C)[C@H](CO)Nc1nc(-c2ccc(Cl)c(Cl)c2)c2c(N)c(C(N)=O)sc2n1` [Example 198] were 10 to 20 µM and 0.1 to 10 µM.

As to `CC(C)(C)Nc1nc(-c2ccc(Cl)c(Cl)c2)c2c(N)c(C(N)=O)sc2n1` [Example 209], the IC50 was 10 to 20 µM with A375 cells (Homo sapiens, A-375, 72 h) and 0.1 to 10 µM against V600E mutant B-RAF. As to `C[C@@H](CO)Oc1nc(-c2ccc(Cl)c(Cl)c2)c2c(N)c(C(N)=O)sc2n1` [Example 211], the concentration for half-maximal inhibition (IC50) with A375 cells (Homo sapiens, A-375, 72 h) is 10 to 20 µM. With `C[C@H](O)[C@H](C)Oc1nc(-c2ccc(Cl)c(Cl)c2)c2c(N)c(C(N)=O)sc2n1` [Example 213], the half-inhibitory concentration (IC50) in the assay with A375 cells (Homo sapiens, A-375, 72 h) is > 60 µM; against V600E mutant B-RAF, 0.1 to 10 µM. Take `CC(C)(O)CNc1nc(-c2ccc(Cl)c(Cl)c2)c2c(N)c(C(N)=O)sc2n1` [Example 215]: the half-maximal inhibitory concentration (IC50) is 10 to 20 µM in the assay on A375 cells (Homo sapiens, A-375, 72 h) and 0.1 to 10 µM on V600E mutant B-RAF. Regarding `CCCCNc1nc(-c2ccc(Cl)c(Cl)c2)c2c(N)c(C(N)=O)sc2n1` [Example 223], the IC50 against V600E mutant B-RAF lay in the range of 0.1 to 10 µM. In the case of `NC(=O)c1sc2nc(NC3CC3)nc(-c3cccc(N)c3)c2c1N` [Example 245], the IC50 in the assay with A375 cells (Homo sapiens, A-375, 72 h) is > 60 µM. The same measure, in the same setting: as for `COc1cc(-c2nc(NC(C)(C)CO)nc3sc(C(N)=O)c(N)c23)cc(Cl)c1Cl` [Example 263], the figure is 10 to 20 µM; as for `COc1cncc(-c2nc(N)nc3sc(C(N)=O)c(N)c23)c1` [Example 277], 0.1 to 10 µM; as for `COc1ccc(NC(=O)Nc2cccc(-c3ncnc4sc(C(N)=O)c(N)c34)c2)cc1` [Example 283], 10 to 20 µM. Still for that read-out and setting: as for `NC(=O)c1sc2ncnc(-c3cccc(Nc4nc5cc(C(F)(F)F)ccc5[nH]4)c3)c2c1N` [Example 287], the figure is 0.1 to 10 µM. In the assay with A375 cells (Homo sapiens, A-375, 72 h), `NC(=O)c1sc2ncnc(-c3cccc([N+](=O)[O-])c3)c2c1N` [Example 289] gave an IC50 of 10 to 20 µM. `NC(=O)c1sc2ncnc(-c3cccc(N)c3)c2c1N` [Example 290]: the half-inhibitory concentration (IC50) with A375 cells (Homo sapiens, A-375, 72 h) was 10 to 20 µM.

With `NC(=O)c1sc2ncnc(-c3cccc(NC(=O)Nc4ccccn4)c3)c2c1N` [Example 294], the concentration for half-maximal inhibition (IC50) in the assay with A375 cells (Homo sapiens, A-375, 72 h) fell in the range of 10 to 20 µM.
